Measurements reported in patent US9932340B2, “Substituted indoles” (AbbVie Inc., priority 2014, dated 2018).

Target: SUV420H1 enzyme (Homo sapiens, UniProt Q4FZB7)
Assay: TR-FRET SAH SUV420H1 enzyme inhibition assay
Type: biochemical
Details: Histone Peptide H4(8-30)me1 and SAM, overnight at room temp, TR-FRET detection of SAH, read-out: TR-FRET SAH_SUV420H1 IC50
Summary of the method: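 SUV420H1 (90 nM) preincubated 30 min with compound (3-fold dilutions, 50 to 0.00075 μM), then H4(8-30)me1 peptide 5 nM and SAM 4 nM added, overnight at room temp. SAH product detected by TR-FRET with Tb anti-SAH antibody and Oregon Green-SAH in RIPA buffer, 4 h; IC50 from Hill fit, asymptotes fixed 0-100%.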

SUV420H1 enzyme, sequence (Q4FZB7 whole entry): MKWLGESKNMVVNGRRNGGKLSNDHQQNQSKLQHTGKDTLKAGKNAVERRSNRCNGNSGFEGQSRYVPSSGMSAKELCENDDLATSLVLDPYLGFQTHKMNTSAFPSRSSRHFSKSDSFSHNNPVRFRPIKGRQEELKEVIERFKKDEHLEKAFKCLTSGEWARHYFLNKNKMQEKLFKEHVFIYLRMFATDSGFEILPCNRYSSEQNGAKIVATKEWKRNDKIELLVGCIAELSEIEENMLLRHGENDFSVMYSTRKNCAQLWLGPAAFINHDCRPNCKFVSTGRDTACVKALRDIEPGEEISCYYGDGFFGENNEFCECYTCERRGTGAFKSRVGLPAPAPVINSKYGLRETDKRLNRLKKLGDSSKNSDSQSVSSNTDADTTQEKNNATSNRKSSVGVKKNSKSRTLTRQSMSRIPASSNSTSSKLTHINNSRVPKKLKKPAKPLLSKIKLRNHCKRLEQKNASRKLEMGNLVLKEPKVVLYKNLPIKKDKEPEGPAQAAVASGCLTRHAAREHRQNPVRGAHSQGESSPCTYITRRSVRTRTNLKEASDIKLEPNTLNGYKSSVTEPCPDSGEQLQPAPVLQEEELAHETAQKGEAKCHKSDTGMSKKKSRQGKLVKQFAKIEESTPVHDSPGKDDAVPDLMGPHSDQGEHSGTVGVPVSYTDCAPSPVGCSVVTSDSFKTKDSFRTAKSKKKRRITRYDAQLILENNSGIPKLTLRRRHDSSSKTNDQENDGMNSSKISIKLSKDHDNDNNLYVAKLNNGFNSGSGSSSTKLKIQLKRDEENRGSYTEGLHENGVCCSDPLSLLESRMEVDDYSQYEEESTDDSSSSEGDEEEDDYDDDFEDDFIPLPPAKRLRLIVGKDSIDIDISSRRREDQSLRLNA

| IC50 | SMILES |
| --- | --- |
| 24 µM | Nc1ncnc2c1ncn2Cc1cc(Cl)cc2cc(CNC(=O)c3cn[nH]c3)[nH]c12 [Example 143, N-({7-[(6-amino-9H-purin-9-yl)methyl]-5-chloro-1H-indol-2-yl}methyl)-1H-pyrazole-4-carboxamide] |
| 4.6 µM | Nc1ncnc2c1ncn2Cc1cc(Cl)cc2cc(CNC(=O)c3cccs3)[nH]c12 [Example 144, N-({7-[(6-amino-9H-purin-9-yl)methyl]-5-chloro-1H-indol-2-yl}methyl)thiophene-2-carboxamide] |
| 2.4 µM | Nc1ncnc2c1ncn2Cc1cc(Cl)cc2cc(CNC(=O)c3ccsc3)[nH]c12 [Example 145, N-({7-[(6-amino-9H-purin-9-yl)methyl]-5-chloro-1H-indol-2-yl}methyl)thiophene-3-carboxamide] |
| 14.2 µM | Nc1ncnc2c1ncn2Cc1cc(Cl)cc2cc(CNC(=O)c3ccc[nH]3)[nH]c12 [Example 146, N-({7-[(6-amino-9H-purin-9-yl)methyl]-5-chloro-1H-indol-2-yl}methyl)-1H-pyrrole-2-carboxamide] |
| 5.79 µM | Cc1scnc1C(=O)NCc1cc2cc(Cl)cc(Cn3cnc4c(N)ncnc43)c2[nH]1 [Example 147, N-({7-[(6-amino-9H-purin-9-yl)methyl]-5-chloro-1H-indol-2-yl}methyl)-5-methyl-1,3-thiazole-4-carboxamide] |
| 1.03 µM | Cc1ncsc1C(=O)NCc1cc2cc(Cl)cc(Cn3cnc4c(N)ncnc43)c2[nH]1 [Example 148, N-({7-[(6-amino-9H-purin-9-yl)methyl]-5-chloro-1H-indol-2-yl}methyl)-4-methyl-1,3-thiazole-5-carboxamide] |
| 2.04 µM | Cc1oncc1C(=O)NCc1cc2cc(Cl)cc(Cn3cnc4c(N)ncnc43)c2[nH]1 [Example 149, N-({7-[(6-amino-9H-purin-9-yl)methyl]-5-chloro-1H-indol-2-yl}methyl)-5-methyl-1,2-oxazole-4-carboxamide] |
| 0.382 µM | Cc1nocc1C(=O)NCc1cc2cc(Cl)cc(Cn3cnc4c(N)ncnc43)c2[nH]1 [Example 150, N-({7-[(6-amino-9H-purin-9-yl)methyl]-5-chloro-1H-indol-2-yl}methyl)-3-methyl-1,2-oxazole-4-carboxamide] |
| 6.75 µM | Cn1ccc(C(=O)NCc2cc3cc(Cl)cc(Cn4cnc5c(N)ncnc54)c3[nH]2)n1 [Example 151, N-({7-[(6-amino-9H-purin-9-yl)methyl]-5-chloro-1H-indol-2-yl}methyl)-1-methyl-1H-pyrazole-3-carboxamide] |
| 1.08 µM | Cn1nccc1C(=O)NCc1cc2cc(Cl)cc(Cn3cnc4c(N)ncnc43)c2[nH]1 [Example 152, N-({7-[(6-amino-9H-purin-9-yl)methyl]-5-chloro-1H-indol-2-yl}methyl)-1-methyl-1H-pyrazole-5-carboxamide] |
| 4.4 µM | Cn1cncc1C(=O)NCc1cc2cc(Cl)cc(Cn3cnc4c(N)ncnc43)c2[nH]1 [Example 153, N-({7-[(6-amino-9H-purin-9-yl)methyl]-5-chloro-1H-indol-2-yl}methyl)-1-methyl-1H-imidazole-5-carboxamide] |
| 4.77 µM | Cn1ccnc1C(=O)NCc1cc2cc(Cl)cc(Cn3cnc4c(N)ncnc43)c2[nH]1 [Example 154, N-({7-[(6-amino-9H-purin-9-yl)methyl]-5-chloro-1H-indol-2-yl}methyl)-1-methyl-1H-imidazole-2-carboxamide] |
| 3.59 µM | Cc1noc(N)c1C(=O)NCc1cc2cc(Cl)cc(Cn3cnc4c(N)ncnc43)c2[nH]1 [Example 155, 5-amino-N-({7-[(6-amino-9H-purin-9-yl)methyl]-5-chloro-1H-indol-2-yl}methyl)-3-methyl-1,2-oxazole-4-carboxamide] |
| 7.92 µM | Cc1sccc1C(=O)NCc1cc2cc(Cl)cc(Cn3cnc4c(N)ncnc43)c2[nH]1 [Example 156, N-({7-[(6-amino-9H-purin-9-yl)methyl]-5-chloro-1H-indol-2-yl}methyl)-2-methylthiophene-3-carboxamide] |
| 2.06 µM | Cc1ccsc1C(=O)NCc1cc2cc(Cl)cc(Cn3cnc4c(N)ncnc43)c2[nH]1 [Example 157, N-({7-[(6-amino-9H-purin-9-yl)methyl]-5-chloro-1H-indol-2-yl}methyl)-3-methylthiophene-2-carboxamide] |
| 4.75 µM | COc1cscc1C(=O)NCc1cc2cc(Cl)cc(Cn3cnc4c(N)ncnc43)c2[nH]1 [Example 158, N-({7-[(6-amino-9H-purin-9-yl)methyl]-5-chloro-1H-indol-2-yl}methyl)-4-methoxythiophene-3-carboxamide] |

| IC50 | SMILES |
| --- | --- |
| > 50 µM | COc1ccsc1C(=O)NCc1cc2cc(Cl)cc(Cn3cnc4c(N)ncnc43)c2[nH]1 [Example 159, N-({7-[(6-amino-9H-purin-9-yl)methyl]-5-chloro-1H-indol-2-yl}methyl)-3-methoxythiophene-2-carboxamide] |
| 16.8 µM | Cn1cccc1C(=O)NCc1cc2cc(Cl)cc(Cn3cnc4c(N)ncnc43)c2[nH]1 [Example 160, N-({7-[(6-amino-9H-purin-9-yl)methyl]-5-chloro-1H-indol-2-yl}methyl)-1-methyl-1H-pyrrole-2-carboxamide] |
| 0.856 µM | Cc1nc(C)c(C(=O)NCc2cc3cc(Cl)cc(Cn4cnc5c(N)ncnc54)c3[nH]2)s1 [Example 161, N-({7-[(6-amino-9H-purin-9-yl)methyl]-5-chloro-1H-indol-2-yl}methyl)-2,4-dimethyl-1,3-thiazole-5-carboxamide] |
| 0.237 µM | Cc1noc(C)c1C(=O)NCc1cc2cc(Cl)cc(Cn3cnc4c(N)ncnc43)c2[nH]1 [Example 162, N-({7-[(6-amino-9H-purin-9-yl)methyl]-5-chloro-1H-indol-2-yl}methyl)-3,5-dimethyl-1,2-oxazole-4-carboxamide] |
| 0.127 µM | Cc1noc(C)c1C(=O)NCc1cc2cc(C3=CCCNC3)cc(Cn3cnc4c(N)ncnc43)c2[nH]1 [Example 163, N-({7-[(6-amino-9H-purin-9-yl)methyl]-5-(1,2,5,6-tetrahydropyridin-3-yl)-1H-indol-2-yl}methyl)-3,5-dimethyl-1,2-oxazole-4-carboxamide] |
| 0.139 µM | Cc1noc(C)c1C(=O)NCc1cc2cc(-c3ccccc3)cc(Cn3cnc4c(N)ncnc43)c2[nH]1 [Example 164, N-({7-[(6-amino-9H-purin-9-yl)methyl]-5-phenyl-1H-indol-2-yl}methyl)-3,5-dimethyl-1,2-oxazole-4-carboxamide] |
| 0.233 µM | Cc1noc(C)c1C(=O)NCc1cc2cc(-c3ccc(F)cc3)cc(Cn3cnc4c(N)ncnc43)c2[nH]1 [Example 165, N-({7-[(6-amino-9H-purin-9-yl)methyl]-5-(4-fluorophenyl)-1H-indol-2-yl}methyl)-3,5-dimethyl-1,2-oxazole-4-carboxamide] |
| 0.0889 µM | Cc1noc(C)c1C(=O)NCc1cc2cc(-c3ccc(S(N)(=O)=O)cc3)cc(Cn3cnc4c(N)ncnc43)c2[nH]1 [Example 166, N-({7-[(6-amino-9H-purin-9-yl)methyl]-5-(4-sulfamoylphenyl)-1H-indol-2-yl}methyl)-3,5-dimethyl-1,2-oxazole-4-carboxamide] |
| 0.225 µM | Cc1ccc(-c2cc(Cn3cnc4c(N)ncnc43)c3[nH]c(CNC(=O)c4c(C)noc4C)cc3c2)cc1 [Example 167, N-({7-[(6-amino-9H-purin-9-yl)methyl]-5-(4-methylphenyl)-1H-indol-2-yl}methyl)-3,5-dimethyl-1,2-oxazole-4-carboxamide] |
| 0.333 µM | COc1ccc(-c2cc(Cn3cnc4c(N)ncnc43)c3[nH]c(CNC(=O)c4c(C)noc4C)cc3c2)cc1 [Example 168, N-({7-[(6-amino-9H-purin-9-yl)methyl]-5-(4-methoxyphenyl)-1H-indol-2-yl}methyl)-3,5-dimethyl-1,2-oxazole-4-carboxamide] |
| 0.0801 µM | COc1cccc(-c2cc(Cn3cnc4c(N)ncnc43)c3[nH]c(CNC(=O)c4c(C)noc4C)cc3c2)c1 [Example 169, N-({7-[(6-amino-9H-purin-9-yl)methyl]-5-(3-methoxyphenyl)-1H-indol-2-yl}methyl)-3,5-dimethyl-1,2-oxazole-4-carboxamide] |
| 0.208 µM | Cc1noc(C)c1C(=O)NCc1cc2cc(-c3ccc(S(C)(=O)=O)cc3)cc(Cn3cnc4c(N)ncnc43)c2[nH]1 [Example 170, N-({7-[(6-amino-9H-purin-9-yl)methyl]-5-[4-(methylsulfonyl)phenyl]-1H-indol-2-yl}methyl)-3,5-dimethyl-1,2-oxazole-4-carboxamide] |
| 0.173 µM | Cc1noc(C)c1C(=O)NCc1cc2cc(-c3ccc(C#N)cc3)cc(Cn3cnc4c(N)ncnc43)c2[nH]1 [Example 171, N-({7-[(6-amino-9H-purin-9-yl)methyl]-5-(4-cyanophenyl)-1H-indol-2-yl}methyl)-3,5-dimethyl-1,2-oxazole-4-carboxamide] |
| 0.0661 µM | Cc1noc(C)c1C(=O)NCc1cc2cc(-c3cccc(C#N)c3)cc(Cn3cnc4c(N)ncnc43)c2[nH]1 [Example 172, N-({7-[(6-amino-9H-purin-9-yl)methyl]-5-(3-cyanophenyl)-H-indol-2-yl}methyl)-3,5-dimethyl-1,2-oxazole-4-carboxamide] |
| 0.0412 µM | Cc1noc(C)c1C(=O)NCc1cc2cc(-c3cccc(C(N)=O)c3)cc(Cn3cnc4c(N)ncnc43)c2[nH]1 [Example 173, N-({7-[(6-amino-9H-purin-9-yl)methyl]-5-(3-carbamoylphenyl)-1H-indol-2-yl}methyl)-3,5-dimethyl-1,2-oxazole-4-carboxamide] |
| 0.101 µM | Cc1noc(C)c1C(=O)NCc1cc2cc(-c3ccc(NS(C)(=O)=O)cc3)cc(Cn3cnc4c(N)ncnc43)c2[nH]1 [Example 174, N-[(7-[(6-amino-9H-purin-9-yl)methyl]-5-{4-[(methylsulfonyl)amino]phenyl}-1H-indol-2-yl)methyl]-3,5-dimethyl-1,2-oxazole-4-carboxamide] |
